Measured values published in patent EP1370263B1, “ANTIBIOTIC PHARMACEUTICAL COMPOSITION WITH LYSERGOL AS BIO-ENHANCER AND METHOD OF TREATMENT” (Council of Scientific and Industrial Research, priority 2002, dated 2003).

What was measured:
[1] = system: bacteria; experiment: Growth of bacteria in presence of lysergol alone (killing activity); assay type: cell-based; details: 10 µg/ml, no antibiotic
Protocol: The invention is further explained in the form of following embodiments. • 1. Assay for bio-enhancement of anti-infective agents • (a) The minimum inhibitory concentration (MIC) of antibiotic is determined against Escherichia coli (ATCC 10536), Bacillus subtilis (ATCC 6051) and Mycobacterium smegmatis (ATCC 14468) in broth and disc diffusion assay. • (b) The antibiotics at concentrations 1/4, 1/3, 1/2 and equal to MIC are added alone and in combination with the test compound at varying concentrations on disc and in broth to evaluate the comparative inhibition. • (c) These combinations showing significant advantage or higher activity than antibiotic alone in terms of enhanced inhibition of bacterial growth (large inhibition zone in disc diffusion and effectivity of lower concentration in broth assay) are picked up for future testing. • (d) In broth assay the activity is quantified by counting number of viable cells in a given treatment and converted in fold enhancement by combination compared to antibiotic / drug alone in the killing percentage of cells. • (e) The pretreatment assay followed to determine whether the compound is required along with antibiotic to enhance its activity or even its withdrawal after treatment or prior to antibiotic treatment would benefit. […]

[2] = system: Escherichia coli; experiment: microbe, parasite or virus in culture
Protocol: The invention is further explained in the form of following embodiments. • 1. […] For this, the cells are treated with compound for 4 to 8 hours and then washed free of it by centrifugation and washing in sterile water. […] These experiments are being described in the following examples. […] In all the experiments the Lysergol concentration is kept at 10 µg/ml, unless it is specifically mentioned.

[3] = system: Bacillus subtilis; experiment: Broth assay, viable cell count: killing action of antibiotic alone and in combination with lysergol; assay type: cell-based, Bacillus subtilis (ATCC 6051)
Protocol: (§1) The invention is further explained in the form of following embodiments. • 1. Assay for bio-enhancement of anti-infective agents • (a) The minimum inhibitory concentration (MIC) of antibiotic is determined against Escherichia coli (ATCC 10536), Bacillus subtilis (ATCC 6051) and Mycobacterium smegmatis (ATCC 14468) in broth and disc diffusion assay. • (b) The antibiotics at concentrations 1/4, 1/3, 1/2 and equal to MIC are added alone and in combination with the test compound at varying concentrations on disc and in broth to evaluate the comparative inhibition. • (c) These combinations showing significant advantage or higher activity than antibiotic alone in terms of enhanced inhibition of bacterial growth (large inhibition zone in disc diffusion and effectivity of lower concentration in broth assay) are picked up for future testing. • (d) In broth assay the activity is quantified by counting number of viable cells in a given treatment and converted in fold enhancement by combination compared to antibiotic / drug alone in the killing percentage of cells. • (e) The pretreatment assay followed to determine whether the compound is required along with antibiotic to enhance its activity or even its withdrawal after treatment or prior to antibiotic treatment would benefit. For this, the cells are treated with compound for 4 to 8 hours and then washed free of it by centrifugation and washing in sterile water. This is followed by treatment with antibiotic as in steps b to d.
(§2) Bioactivity is experimented with the killing activities of different antibiotics against the bacteria singly and in combination with the test compound Lysergol following the method described above. These experiments are being described in the following examples. […] In all the experiments the Lysergol concentration is kept at 10 µg/ml, unless it is specifically mentioned.
Lysergol mediated enhancement in the killing action of antibiotics against Gram positive bacterium Bacillus subtilis.

[4] = Transport of antibiotics across freshly isolated gut membrane in U-shaped tubes (absorbency in right arm); assay type: in vitro ADME
Protocol: We performed the experiments in U-shaped tubes with joint in between, where the freshly isolated gut membrane is fixed. In control tube only antibiotic solution (4ml @ 1mg/ml solution) is poured in the left arm where as in the right arm only water is poured. In the other tube in addition to the antibiotic solution lysergol (4µg @ 1µg/ml) is added.

[5] = system: Mycobacterium smegmatis; experiment: Broth assay, viable cell count: killing action of antibiotic alone and in combination with lysergol; assay type: cell-based, Mycobacterium smegmatis (ATCC 14468)
Protocol: as §1, §2
Lysergol mediated enhancement in the killing action of antibiotics against bacterium Mycobacterium smegmatis Table 3: […]

[6] = Escherichia coli, read-out: Survival fraction of viable cells upon treatment with antibiotic alone

In the case of `CN1C[C@H](CO)C=C2c3cccc4[nH]cc(c34)C[C@H]21` [Lysergol, 9,10-Didehydro-6-methylergoline-8-[…]-methanol], the “killing of bacteria grown in presence of the compound as such” value [1] is reported as “no significant killing”.
With `CO[C@H]1/C=C/O[C@@]2(C)Oc3c(C)c(O)c4c(O)c(c(/C=N/N5CCN(C)CC5)c(O)c4c3C2=O)NC(=O)/C(C)=C\C=C\[C@H](C)[C@H](O)[C@@H](C)[C@@H](O)[C@@H](C)[C@H](OC(C)=O)[C@@H]1C` [Rifampicin] the viability at 10 µg/mL [2, 6] was 35 to 45%, the viability at 20 µg/mL [2, 6] was 25 to 30% and the “Fold enhancement in antibiotic activity” value ([2]; antibiotic 10 µg/ml + lysergol 10 µg/ml versus antibiotic alone) was 6-12 fold. For the same compound, the “Fold enhancement in antibiotic activity” value ([2]; antibiotic 20 µg/ml + lysergol 10 µg/ml versus antibiotic alone) was 3-5 fold, the viability at 0.4 µg/mL ([3]; Bacillus subtilis, read-out: Survival fraction of viable cells upon treatment with antibiotic alone) was 8.5 to 9.6% and the “Survival fraction of viable cells upon treatment with antibiotic + lysergol combination” value ([3]; antibiotic 0.4 µg/ml + lysergol 10 µg/ml) was 0.021-0.028. The “Fold enhancement in antibiotic activity” value ([3]; antibiotic 0.4 µg/ml + lysergol 10 µg/ml versus antibiotic alone) was 3.0-4.6 fold, the Increase in absorbency [4] was 0.131 and the viability at 0.2 µg/mL ([5]; Mycolicibacterium smegmatis, read-out: Survival fraction of viable cells upon treatment with antibiotic alone) was 45 to 54%. For the same compound, the “Survival fraction of viable cells upon treatment with antibiotic + lysergol combination” value ([5]; antibiotic 0.2 µg/ml + lysergol 10 µg/ml) was 0.09-0.10 and the “Fold enhancement in antibiotic activity” value ([5]; antibiotic 0.2 µg/ml + lysergol 10 µg/ml versus antibiotic alone) was 4.5-6.0 fold.
